Measured values: the NIST ThermoML archive (doi:10.1016/j.jct.2014.06.030)

Experiment: xn = mol fraction of the nth substance listed
Details: 100 kPa, Liquid; for speed of sound: Sing-around technique in a fixed-path interferometer; for mass density: Vibrating tube method

Cc1ccccc1Cl [2-chlorotoluene] + C1CCCCC1
Details	mass density, 298.15 K [kg/m3]	mass density, 303.15 K [kg/m3]	mass density, 308.15 K [kg/m3]	speed of sound, 298.15 K [m/s]	speed of sound, 303.15 K [m/s]	speed of sound, 308.15 K [m/s]
x1 = 0.1098	808.15	803.38	798.58	1251.3	1227.6	1204.7
x1 = 0.1437	818.67	813.9	809.09	1251	1227.7	1205
x1 = 0.1987	835.72	830.93	826.11	1251.1	1228.2	1205.9
x1 = 0.2356	847.14	842.33	837.5	1251.5	1228.8	1206.7
x1 = 0.2874	863.12	858.3	853.47	1252.4	1230	1208.1
x1 = 0.3256	874.88	870.06	865.22	1253.4	1231.2	1209.5
x1 = 0.3876	893.92	889.08	884.22	1255.3	1233.6	1212.2
x1 = 0.4135	901.85	897.01	892.15	1256.2	1234.8	1213.4
x1 = 0.4834	923.2	918.34	913.47	1259.3	1238.4	1217.4
x1 = 0.5243	935.64	930.78	925.9	1261.4	1240.7	1220
x1 = 0.5763	951.42	946.54	941.65	1264.3	1244	1223.6
x1 = 0.6143	962.9	958.02	953.13	1266.5	1246.6	1226.5
x1 = 0.6654	978.29	973.4	968.5	1269.9	1250.3	1230.7
x1 = 0.7154	993.29	988.4	983.48	1273.4	1254.3	1235
x1 = 0.7654	1008.2	1003.3	998.42	1277.2	1258.4	1239.6
x1 = 0.8165	1023.4	1018.5	1013.6	1281.3	1262.9	1244.4
x1 = 0.8324	1028.1	1023.2	1018.3	1282.6	1264.3	1246
x1 = 0.8965	1047.1	1042.2	1037.3	1288.4	1270.3	1252.3

C1CCOCC1 [tetrahydropyran] + C1CCCCC1
Details	mass density, 298.15 K [kg/m3]	mass density, 303.15 K [kg/m3]	mass density, 308.15 K [kg/m3]	speed of sound, 298.15 K [m/s]	speed of sound, 303.15 K [m/s]	speed of sound, 308.15 K [m/s]
x1 = 0.0987	782.47	777.69	772.88	1251.6	1226.7	1202.3
x1 = 0.1432	786.46	781.65	776.83	1250.7	1225.6	1201
x1 = 0.1876	790.51	785.69	780.84	1249.8	1224.6	1199.8
x1 = 0.2378	795.2	790.36	785.49	1249	1223.6	1198.7
x1 = 0.2791	799.14	794.28	789.39	1248.5	1223	1197.8
x1 = 0.3165	802.76	797.88	792.98	1248.1	1222.6	1197.3
x1 = 0.3782	808.86	803.96	799.03	1247.9	1222.4	1197
x1 = 0.4237	813.45	808.53	803.59	1248	1222.5	1197.1
x1 = 0.4521	816.36	811.43	806.48	1248.3	1222.7	1197.4
x1 = 0.4982	821.15	816.2	811.24	1248.8	1223.3	1198.1
x1 = 0.5318	824.7	819.74	814.76	1249.5	1224	1198.9
x1 = 0.5643	828.18	823.2	818.21	1250.2	1224.9	1199.9
x1 = 0.5918	831.15	826.17	821.16	1251	1225.7	1200.8
x1 = 0.6236	834.62	829.63	824.61	1252	1226.8	1202.1
x1 = 0.6982	842.94	837.92	832.88	1254.8	1230	1205.6
x1 = 0.7341	847.03	841.99	836.93	1256.4	1231.7	1207.7
x1 = 0.7949	854.07	849.02	843.94	1259.3	1235	1211.4
x1 = 0.8632	862.2	857.11	852	1262.9	1238.9	1215.8
